row,SMILES,glass transition temperature [°C]
1,*C(=O)OC1CC(*)N(C(=O)OCc2ccccc2)C1 (repeat unit),78.00
2,*CC(F)(F)C(F)(F)C(F)(F)C(F)(F)COC(=O)O* (repeat unit),-41.00
3,*CC(F)(F)C(F)(F)C(F)(F)COC(=O)c1cccc(-c2cccc(C(=O)O*)c2)c1 (repeat unit),45.00
4,*CC(F)(F)C(F)(F)C(F)(F)COC(=O)c1cccc(C(F)(F)C(F)(F)C(F)(F)C(F)(F)C(F)(F)c2cccc(C(=O)O*)c2)c1 (repeat unit),29.00
5,*CC(O)C(O)COC(=O)O* (repeat unit),39.60
6,*CC(O)COc1ccc(C(=O)c2ccc(O*)cc2)cc1 (repeat unit),130.00
7,*CC1CCC(COC(=O)C2CCC(C(=O)O*)CC2)CC1 (repeat unit),77.00
8,*CC1CCC(COC(C)OC(=O)c2ccc(C(=O)OC(C)O*)c3ccccc23)CC1 (repeat unit),60.00
9,*CC1CCC(COC(C)OC(=O)c2ccc(C(=O)OC(C)O*)cc2)CC1 (repeat unit),61.00
10,*CCCC(=O)NNC(=O)c1ccc(C(=O)NNC(=O)CCCOc2ccc(O*)c(C)c2)cc1 (repeat unit),139.00
11,*CCCCCC(=O)Oc1ccc(OC(=O)CCCCCn2c(=O)c3cc4c(=O)n(*)c(=O)c4cc3c2=O)c(C)c1 (repeat unit),78.00
12,*CCCCCCCCCCOc1ccc(/C=C/c2ccc(OCCCCCCCCCCOP(=O)(O*)OCCCCCCCCCCOc3ccc(/N=N/c4ccc(Cl)cc4)cc3)cc2)cc1 (repeat unit),60.00
13,*CCCCCCCCCCOc1ccc(/C=C2\CC/C(=C\c3ccc(OCCCCCCCCCCOP(=O)(O*)OCC)c(OC)c3)C2=O)cc1OC (repeat unit),47.00
14,*CCCCCCOC(=O)OCCCCCCCCCCOC(=O)OCCCCCCn1c(=O)c2cc3c(=O)n(*)c(=O)c3cc2c1=O (repeat unit),-2.00
15,*CCOCCOc1ccc(C(=O)OC(=O)c2ccc(O*)cc2)cc1 (repeat unit),41.00
16,*CCOc1ccc(C(=O)OC(=O)c2ccc(O*)cc2)cc1 (repeat unit),45.00
17,*COCOc1ccc(C(=O)OC(=O)c2ccc(O*)cc2)cc1 (repeat unit),57.00
18,*COc1ccc(C(=O)OC(=O)c2ccc(O*)cc2)cc1 (repeat unit),84.00
19,*Nc1c(C)c(C)c(C(=O)c2ccc(NC(=O)c3ccc(C(*)=O)cc3)cc2)c(C)c1C (repeat unit),366.00
20,*OC(=O)c1ccc(Cc2ccc(C(*)=O)cc2)cc1 (repeat unit),122.00
21,*OC(=O)c1cccc(C(=O)OC2CC3CC(*)CC(C2)O3)c1 (repeat unit),113.00
22,*OC(CCl)C(*)CCl (repeat unit),95.00
23,*OC(F)(C(*)(F)F)C(F)(F)F (repeat unit),-73.00
24,*OC(F)(F)COC(=O)c1cccc(C(=O)OCC(*)(F)F)c1 (repeat unit),28.00

row,SMILES,glass transition temperature [°C]
1,*OC1C(CO)OC(*)C(NC(C)=O)C1O (repeat unit),154.60
2,*OC1C(COC(C)=O)OC(*)C(OC(C)=O)C1O (repeat unit),202.00
3,*ON(C(F)(F)F)C(F)(C(*)(F)F)C(F)(F)F (repeat unit),-9.00
4,*ON(C(F)(F)F)C(F)(F)C(*)(F)F (repeat unit),-46.00
5,*OP(=O)(Oc1ccccc1)OC(CCl)COc1ccc(S(=O)(=O)c2ccc(OCC(*)CCl)cc2)cc1 (repeat unit),48.00
6,*O[Si](C)(C)O[Si](C)(C)O[Si](C)(C)O[Si](C)(C)O[Si](C)(C)OC1=C(*)c2cccc3cccc1c23 (repeat unit),-54.00
7,*[O][Sn]([CH2]CCC)([CH2]CCC)[O]C(=O)c1ccc(C(*)=O)cc1 (repeat unit),315.00
8,*Oc1c(C)cc(C(C)(C)c2cc(C)c(OC(*)=O)c(Cl)c2)cc1Cl (repeat unit),154.00
9,*Oc1cc(C(C)(C)c2ccccc2)c(OC(=O)c2ccc(C(*)=O)cc2)cc1C(C)(C)c1ccccc1 (repeat unit),170.00
10,*Oc1cc(CCC)cc(OC(=O)c2cccc(C(*)=O)c2)c1 (repeat unit),129.00
11,*Oc1cc(OC(=O)c2ccc(C(*)=O)cc2)cc(C(=O)OCCN(CC)c2ccc(/N=N/c3ccc([N+](=O)[O-])cc3)cc2)c1 (repeat unit),130.00
12,*Oc1cc(OCCOC)c(OC(=O)c2ccc(C(*)=O)cc2-c2ccccc2)cc1OCCOC (repeat unit),92.00
13,*Oc1ccc(-c2ccc(OC(=O)c3ccc(-c4ccc(C(*)=O)cc4C(F)(F)F)c(C(F)(F)F)c3)cc2C(=O)OCCCCCCCCCCCOc2ccc(-c3ccc(C#N)cc3)cc2)c(C(=O)OCCCCCCCCCCCOc2ccc(-c3ccc(C#N)cc3)cc2)c1 (repeat unit),50.00
14,*Oc1ccc(-c2ccc(OC(=O)c3ccc(Oc4ccc(C5(c6ccc(Oc7ccc(C(*)=O)cc7)cc6)CCC(C(C)(C)C)CC5)cc4)cc3)cc2C)c(C)c1 (repeat unit),163.00
15,*Oc1ccc(Cc2ccc(OC(=O)OCC3CCC(COC(*)=O)CC3)cc2)cc1 (repeat unit),56.90
16,*Oc1ccc(OC(=O)c2cc(OCCCc3ccccc3)c(C(*)=O)cc2OCCCc2ccccc2)cc1C (repeat unit),91.00
17,*Oc1ccc(OC(=O)c2ccc(-c3ccc(C(*)=O)cc3)cc2-c2ccccc2)cc1C (repeat unit),133.00
18,*Oc1ccc(OC(=O)c2ccc(C(*)=O)cc2Sc2ccccc2)cc1C (repeat unit),130.00
19,*Oc1ccc(OC(=O)c2ccc(Sc3cccc(OC(=O)c4ccc(C(=O)Oc5cccc(Sc6ccc(C(*)=O)cc6)c5)cc4)c3)cc2)cc1C (repeat unit),135.00
20,*Oc1cccc(C(=O)OCC(F)(F)C(F)(F)C(F)(F)COC(=O)c2cccc(*)c2)c1 (repeat unit),20.00
21,*c1ccc(Oc2ccc(C(=O)c3ccc(Oc4ccc(-c5c6c(c(*)c7ccccc57)C(=O)N(c5ccc(F)cc5)C6=O)cc4)cc3)cc2)cc1 (repeat unit),290.00
22,*c1ccc(Oc2ccc(C(=O)c3ccc(Oc4ccc(-c5c6c(c(*)c7ccccc57)C(=O)N(c5ccccc5F)C6=O)cc4)cc3)cc2)cc1 (repeat unit),282.00
23,*c1ccc(Oc2ccc(C(=O)c3ccc(Oc4ccc(-c5nc(-c6ccccc6)[nH]c5*)cc4)cc3)cc2)cc1 (repeat unit),259.00

# The next lines start with the values.
row,glass transition temperature [°C],SMILES
1,105.00,*C(=O)OCCCCCCCCCCCCOC(=O)c1ccc2c(c1)C(=O)N(c1ccc(Oc3ccc(N4C(=O)c5ccc(*)cc5C4=O)cc3)cc1)C2=O (repeat unit)
2,62.00,*C(=O)OCCCCCCCCCOC(=O)c1ccc(N2C(=O)c3ccc(*)cc3C2=O)cc1 (repeat unit)
3,65.00,*C(=O)OCCCCCCCCOC(=O)c1ccc(N2C(=O)c3ccc(*)cc3C2=O)cc1 (repeat unit)
4,313.00,*C(=O)c1ccc2c(c1)C(=O)N(c1ccc(C(=O)N(C)c3ccc(N4C(=O)c5ccc(*)cc5C4=O)cc3)cc1)C2=O (repeat unit)
5,254.00,*C(=O)c1ccc2c(c1)C(=O)N(c1cccc(Cc3ccc(C(=O)c4ccc(N5C(=O)c6ccc(*)cc6C5=O)cc4)cc3)c1)C2=O (repeat unit)
6,126.00,*CCCCCC(=O)NNC(=O)c1ccc(C(=O)NNC(=O)CCCCCOc2ccc(O*)c(C)c2)cc1 (repeat unit)
7,50.50,*CCCCCCCCCCCCOC(=O)c1ccc(-c2ccc(C(=O)O*)cc2)cc1 (repeat unit)
8,43.00,*CCCCCCCCCCCOC(=O)c1ccc2cc(C(=O)O*)ccc2c1 (repeat unit)
9,50.50,*CCCCCCCCCCOC(=O)c1ccc2cc(C(=O)O*)ccc2c1 (repeat unit)
10,-22.50,*CCCCCCCCCCOC(=O)c1cccc(C(=O)O*)c1 (repeat unit)
11,35.00,*CCCCCCCCCOC(=O)c1ccc(C(=O)O*)cc1 (repeat unit)
12,-13.00,*CCCCCCOC(=O)OCCCCCCCCCCOC(=O)OCCCCCCOc1ccc(C(=O)c2ccc(O*)cc2)cc1 (repeat unit)
13,-6.00,*CCCCCCOC(=O)OCCCCCCCCCOC(=O)OCCCCCCOc1ccc(C(=O)c2ccc(O*)cc2)cc1 (repeat unit)
14,-7.70,*CCCCCCOC(=O)OCCCCCCCCOC(=O)OCCCCCCOc1ccc(C(=O)c2ccc(O*)cc2)cc1 (repeat unit)
15,53.00,*CCCCCOc1ccc(C(=O)OC(=O)c2ccc(O*)cc2)cc1 (repeat unit)
16,62.00,*OC(=O)c1ccc(SCCCCSc2ccc(C(*)=O)cc2)cc1 (repeat unit)
17,34.50,*Oc1cc(CCCCCCCCCCC)cc(OC(=O)c2cccc(C(*)=O)c2)c1 (repeat unit)
18,25.50,*Oc1cc(CCCCCCCCCCCCC)cc(OC(=O)c2cccc(C(*)=O)c2)c1 (repeat unit)
19,18.00,*Oc1cc(OC(=O)c2ccc(OCCC)cc2)c(OC(=O)CCCCCCCCCCCCCCC(*)=O)cc1OC(=O)c1ccc(OCCC)cc1 (repeat unit)
20,98.00,*Oc1ccc(OC(=O)c2ccc(OCCCCCCOc3ccc(C(*)=O)cc3)cc2)cc1/N=N/c1ccc(C#N)cc1 (repeat unit)
21,58.00,*c1ccc(C(=O)OCCCCCCCCCCOc2ccc(/C=C3\CC/C(=C\c4ccc(OCCCCCCCCCCOC(=O)c5ccc(-c6nnc(*)o6)cc5)cc4)C3=O)cc2)cc1 (repeat unit)
22,268.00,*c1ccc(C(=O)c2ccc(N3C(=O)c4ccc(Oc5ccc(Oc6ccc7c(c6)C(=O)N(*)C7=O)cc5)cc4C3=O)cc2)cc1 (repeat unit)

# Source: the PolyMetriX glass transition set
